# Experimental data from patent publication US20250025451A1, “TREATMENT OF CANCER WITH KDM4 INHIBITORS” (Celgene Corporation, priority 2021, published 2025).
# pIC50: −log10 of the molar value. Where two headings read alike, the source gives them in different places.
# What was measured:
# [1] = system: SU106 patient-derived colon cancer organoid model; experiment: organoid colony formation assay, SU106; assay type: cell-based, human
# Procedure: (§1) The IC50 values for Compound 1 inhibition of colony formation and viability were determined for the patient-derived colon cancer organoid models: SU60, T002C, SU62, SU34, SU103, T03SC, and SU106, patient-derived pancreatic cancer organoid models PA016SF, PA0143F, T016P, and T028P, and a patient-derived breast cancer organoid model FS5S3.
# (§2) Colony formation and viability assays were performed in multiwell plates seeded with organoids using an in vitro culture system composed of a Matrigel layer, media containing a defined set of growth factors, and co-culture with Wnt3 A-secreting mouse embryonic fibroblasts. Assays were initiated by adding either DMSO as a negative control, or an inhibitor panobinostatat 100×IC50 concentration as a positive control, or serially diluted Compound 1. The cultures were incubated for 168 or 144 hours after which the number of viable organoids in each test well was assessed respectively using one of two detection methods: CTG or staining with calcein-AM followed by imaging and colony counting. Colony count or viability of cells treated with compound 1 was expressed as a percent of the negative control. Aggregated Percent of Control values were plotted against the corresponding Compound 1 concentration and the absolute IC50 value was determined from a non-linear regression curve as the concentration where inhibition was 50% of the control.
# [2] = system: ZR-75-1; experiment: cell-proliferation assay (MTS), ZR-75-1; assay type: cell-based; details: ZR-75-1, human breast carcinoma, 168 hours
# Procedure: Compound 1 was evaluated in in vitro cell-proliferation assays (BrdU assay, MTS assay, or Cell Titer Glo (CTG) assay) in multiple cancer cell lines and patient-derived organoid models to determine half-maximal inhibitory concentrations (IC50s).
# Viability and BrdU thymidine incorporation assays were performed in multiwell plates seeded with cells in growth medium. After seeding, multiwell plates were cultured for 24 hours in a humidified incubator at 37° C. to promote adherence. […] The cultures were incubated for 168 hours after which the number of viable cells or the amount of thymidine incorporation in each test well was assessed by the methods as indicated above. Readouts were performed using an EnVision® Multilabel Reader (PerkinElmer, Waltham, MA) and the results were expressed as a percent of the negative control. Percent of Control values were plotted against the corresponding Compound 1 concentration and the relative IC50 value was determined from a non-linear regression curve as the concentration where inhibition was half-maximal. For cell lines where the number of IC50 determinations exceeded one, the IC50 was expressed as the mean IC50±SD.
# Half-maximal inhibitory concentration (IC50) values for Compound 1 inhibition of cell proliferation were determined for nine cancer cell lines and one normal human fibroblastcell line.
# [3] = system: PA0165F patient-derived pancreatic cancer organoid model; experiment: organoid colony formation and viability assay, PA0165F; assay type: cell-based, human
# Procedure: as §1, §2
# [4] = system: KYSE-150 human esophageal cancer xenograft; assay type: in vivo; details: for Median Tumor Volumes Day 21: KYSE-150 CDX Study #2, female NOD/SCID mice; for % TGI / Median Tumor Volumes Diff.: KYSE-150 Study #2; for % TGI: Day 21; for Median Tumor Volumes Diff.: Day 21 minus Day 1
# Procedure: The therapeutic in vivo efficacy of Compound 1 was evaluated in SU60 colorectal cancer, KYSE-150 esophageal cancer, COH70 triple-negative breast cancer, GXA-3036 gastric adenocarcinoma and OCI-LY19 Diffuse Large B-Cell Non-Hodgkin's Lymphoma xenograft models. In all studies, efficacy was determined based on percent tumor growth inhibition (TGI), differences in mean tumor growth, and statistical assessment of differences in net tumor volume distributions on the day of TGI analysis between control and treated animals. Tolerability was assessed based on differences in mean body weights between control and treated animals over the course of the study.
# Study #2—The in vivo therapeutic efficacy and tolerability of Compound 1, administered orally as the lysine salt suspended in a vehicle comprised of 10% PEG 400 and 90% of 0.5% MC, was evaluated in the KYSE-150 ESCC CDX model established in female NOD/SCID mice. Each mouse was inoculated subcutaneously in the right flank with 1×10^7 KYSE-150 tumor cells (0.1 ml) suspended in 50% Matrigel. When the average tumor size reached ˜153 mm3, test animals were randomized into 4 groups consisting of 8 mice per group and treatments were initiated. Control mice received 10% PEG 400 and 90% of 0.5% MC vehicle PO QDx21. Treated mice received the Compound 1 lysine salt form suspended in vehicle at 10, 15, or 20 mg/kg on the same schedule. TGI was determined on Day 21 as (1−Difftreated/Diffcontrol)×100. Individual tumors were measured twice weekly in two dimensions using a caliper, and the tumor volumes (TV) in mm3 were calculated using the formula: TV=0.5 a×b2, where a and b are the long and short tumor diameters in mm, respectively; Mean tumor volumes±SEM were calculated and plotted versus days of dosing (FIG. 12 left panel). Body weights were measured twice weekly. Body weights±SEM were calculated and plotted versus days of dosing (FIG. 12 right panel).
# The difference in mean net tumor volumes on the day of TGI analysis for treated versus control animals was evaluated statistically using one-way ANOVA followed by Dunnetts multiple comparisons test. Adjusted p-values are shown where a calculated probability (p)≤0.05 was considered statistically significant.
smiles,measurement,setting,value
"CC(C)c1ccc(N(C)c2ccc3c(c2)OCC[C@H]3CNc2cnccc2C(=O)O)cc1 [Compound 1, 3-({[(4R)-7-{methyl[4-(propan-2-yl)phenyl]amino}-3,4-dihydro-2H-1-benzopyran-4-yl]methyl}amino)pyridine-4-carboxylic acid]",pIC50,"[1]; Homo sapiens, SU106 colorectal carcinoma model",< 5.00
same,pIC50,"[1]; SU106 human colorectal carcinoma organoid, 144 hrs, Colony Counts",< 5.00
same,pIC50,[2],< 5.00
same,pIC50,"[3]; Homo sapiens, PA0165F pancreatic carcinoma model",> 7.52
same,pIC50,"[3]; PA0165F human pancreatic carcinoma organoid, 144 hrs, Colony Counts",7.80
same,pIC50,"[3]; PA0165F human pancreatic carcinoma organoid, 168 hrs, CTG",7.54
same,Median Tumor Volumes Day 21,[4]; lysine salt 10 mg/kg (free acid equivalents) PO QD x21,1027 mm^3
same,Median Tumor Volumes Day 21,[4]; lysine salt 15 mg/kg (free acid equivalents) PO QD x21,620 mm^3
same,Median Tumor Volumes Day 21,[4]; lysine salt 20 mg/kg (free acid equivalents) PO QD x21,469 mm^3
same,% TGI,[4]; 10 mg/kg PO QD x21,54%
same,Median Tumor Volumes Diff.,[4]; 10 mg/kg PO QD x21,876 mm^3
same,% TGI,[4]; 15 mg/kg PO QD x21,76%
same,Median Tumor Volumes Diff.,[4]; 15 mg/kg PO QD x21,468 mm^3
same,% TGI,[4]; 20 mg/kg PO QD x21,84%
same,Median Tumor Volumes Diff.,[4]; 20 mg/kg PO QD x21,315 mm^3
